# From ChEMBL document CHEMBL4419175, “Compositions for treatment, diagnosis and prognosis of diseases” (2016)
# Activity calls are given as the source filed them. The rule behind the calls is not given here.
# Legend:
# PC-3 [1] = assay: Inhibition of PIP5K1alpha protein expression in human PC3 cells at 20 uM incubated for 48 hrs by immunoblot analysis; type: functional, cell-based
# CWR22R = assay: Antiproliferation activity against human 22Rv1 cells assessed as cell proliferation at 10 to 50 uM by MTS assay; type: functional, cell-based
# [2] = molecular target: Phosphatidylinositol 4-phosphate 5-kinase type-1 alpha (Homo sapiens) (UniProt Q99755); assay: Binding affinity to human PIP5K1alpha
# Chain of Phosphatidylinositol 4-phosphate 5-kinase type-1 alpha (Homo sapiens) (Q99755 whole entry): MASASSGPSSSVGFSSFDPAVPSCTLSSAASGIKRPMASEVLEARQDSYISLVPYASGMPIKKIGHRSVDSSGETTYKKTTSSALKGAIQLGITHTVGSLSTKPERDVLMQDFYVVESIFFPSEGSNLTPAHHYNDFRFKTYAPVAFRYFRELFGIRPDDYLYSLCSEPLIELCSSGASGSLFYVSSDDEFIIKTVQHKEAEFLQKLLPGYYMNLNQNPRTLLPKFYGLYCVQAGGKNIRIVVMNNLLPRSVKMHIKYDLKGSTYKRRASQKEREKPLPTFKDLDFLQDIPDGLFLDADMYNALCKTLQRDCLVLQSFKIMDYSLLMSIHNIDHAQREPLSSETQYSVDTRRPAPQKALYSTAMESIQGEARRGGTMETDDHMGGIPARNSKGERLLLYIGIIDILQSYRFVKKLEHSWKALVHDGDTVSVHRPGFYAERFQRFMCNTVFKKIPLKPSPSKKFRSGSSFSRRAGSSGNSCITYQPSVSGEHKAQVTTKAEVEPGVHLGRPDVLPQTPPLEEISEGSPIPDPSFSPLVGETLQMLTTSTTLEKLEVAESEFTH
# PC-3 [3] = assay: Inhibition of PIP5K1alpha protein expression in human PC3 cells assessed as reduction in cyclin E1 expression at 50 uM incubated for 48 hrs by immunoblot analysis relative to control; type: functional, cell-based
# [4] = Toxicity in mouse xenografted with human PC3 cells assessed as induction of body weight loss at 40 mg/kg dosed every second day starting from day 0 and ending on day 20; type: organism-based; conditions: in vivo
# PC-3 [5] = assay: Induction of apoptosis in human PC3 cells assessed as necrotic cells at 50 uM incubated for 48 hrs by Annexin-/7-AAD staining based FACS analysis (reference value: 0.32%); type: functional
# PC-3 [6] = assay: Antitumor activity against human PC3 cells xenografted in mouse assessed as reduction in volume at 40 mg/kg dosed every second day starting from day 0 and ending on day 20 relative to control; type: functional
# PC-3 [7] = assay: Inhibition of PIP5K1alpha protein expression in human PC3 cells assessed as reduction in FAK phosphorylation incubated for 48 hrs by immunoblot analysis relative to control; type: functional, cell-based
# HCT-116 = assay: Inhibition of cell proliferation in human HCT116 cells assessed as reduction in viable cell count at 10 to 100 uM incubated for 48 hrs; type: functional, cell-based
# PC-3 [8] = assay: Antiproliferation activity against human PC3 cells assessed as cell proliferation at 20 uM by MTS assay; type: functional; conditions: read-out: Activity
# PC-3 [9] = assay: Induction of cell cycle arrest in human PC3 cells assessed as change in accumulation at G2/M phase at 50 uM incubated for 48 hrs by flow cytometry relative to control; type: functional
# PC-3 [10] = assay: Inhibition of PIP5K1alpha protein expression in human PC3 cells assessed as reduction in cyclin A2 expression at 50 uM incubated for 48 hrs by immunoblot analysis relative to control; type: functional, cell-based
# PC-3 [11] = assay: Antitumor activity against human PC3 cells xenografted in mouse assessed as reduction in volume at 40 mg/kg co-treated with 10 mg/kg docetaxel dosed every second day starting from day 0 and ending on day 20 (reference value: 500 mm3); type: functional
# PC-3 [12] = assay: Inhibition of PIP5K1alpha protein expression in human PC3 cells assessed as AKT phosphorylation at Ser473 residues at 50 uM incubated for 48 hrs by immunoblot analysis relative to control; type: functional; set-up: scale not given: the % may be the effect or the level left
# PC-3 [13] = assay: Inhibition of PIP3 protein expression in human PC3 cells at 50 uM incubated for 48 hrs by immunoblot analysis; type: functional, cell-based
# Caco-2 = assay: Inhibition of cell proliferation in human Caco2 cells assessed as reduction in viable cell count at 10 to 100 uM incubated for 48 hrs; type: functional, cell-based
# PC-3 [14] = assay: Inhibition of PIP5K1alpha protein expression in human PC3 cells assessed as reduction in CDK1 expression at 50 uM incubated for 48 hrs by immunoblot analysis relative to control; type: functional, cell-based
# LNCaP [15] = assay: Inhibition of PIP5K1alpha protein expression in human LNCAP cells assessed as reduction in AKT phosphorylation at Ser473 residues at 20 uM incubated for 48 hrs by immunoblot analysis relative to control; type: functional
# LNCaP [16] = assay: Induction of apoptosis in human LNCAP cells assessed as formation of apoptotic bodies at 20 uM incubated for 48 hrs; type: functional, cell-based
# PC-3 [17] = assay: Inhibition of PIP5K1alpha protein expression in human PC3 cells assessed as PIP5K1alpha/beta-actin ratio level at 20 uM incubated for 48 hrs by immunoblot analysis (reference value: 9.43); type: functional
# PC-3 [18] = assay: Induction of apoptosis in human PC3 cells assessed as viable cells at 50 uM incubated for 48 hrs by Annexin-/7-AAD staining based FACS analysis (reference value: 94.31%); type: functional; conditions: PC-3, 48 h, read-out: Activity
# PC-3 [19] = assay: Induction of apoptosis in human PC3 cells assessed as early apoptotic cells at 50 uM incubated for 48 hrs by Annexin-/7-AAD staining based FACS analysis (reference value: 2.53%); type: functional
# PC-3 [20] = assay: Antiproliferation activity against human PC3 cells assessed as cell proliferation at 50 uM by MTS assay; type: functional; conditions: read-out: Activity
# MDA-MB-231 = assay: Inhibition of cell proliferation in human MDA-MB-231 cells assessed as reduction in viable cell count at 10 to 100 uM incubated for 48 hrs; type: functional, cell-based
# LNCaP [21] = assay: Reduction in CDK1 protein expression in human LNCAP cells at 20 uM incubated for 48 hrs by immunoblot analysis; type: functional, cell-based
# LNCaP [22] = assay: Inhibition of PIP5K1alpha protein expression in human LNCAP cells assessed as reduction in AKT phosphorylation at Ser473 residues at 20 uM incubated for 48 hrs by immunofluorescent analysis relative to control; type: functional, cell-based
# PC-3 [23] = assay: Inhibition of PIP5K1alpha protein expression in human PC3 cells assessed as reduction in cyclin B1 expression at 50 uM incubated for 48 hrs by immunoblot analysis relative to control; type: functional, cell-based
# LNCaP [24] = assay: Induction of apoptosis in human LNCAP cells assessed as formation of fragmented nucleus at 20 uM incubated for 48 hrs; type: functional, cell-based
# LNCaP [25] = assay: Inhibition of cell proliferation in human LNCAP cells assessed as reduction in viable cell count at 10 to 100 uM incubated for 48 hrs; type: functional, cell-based
# PC-3 [26] = assay: Inhibition of PIP5K1alpha protein expression in human PC3 cells assessed as reduction in cyclin D1 expression at 50 uM incubated for 48 hrs by immunoblot analysis relative to control; type: functional, cell-based
# LNCaP [27] = assay: Reduction in SKP2 protein expression in human LNCAP cells at 20 uM incubated for 48 hrs by immunoblot analysis; type: functional, cell-based
# LNCaP [28] = assay: Inhibition of PSA protein expression in human LNCAP cells at 20 uM incubated for 48 hrs by immunoblot analysis; type: functional, cell-based
# PC-3 [29] = assay: Antiproliferation activity against human PC3 cells assessed as cell proliferation at 10 uM by MTS assay; type: functional; conditions: read-out: Activity
# PC-3 [30] = assay: Induction of morphological changes in human PC3 cells assessed as reduction in cell size at 50 uM incubated for 48 hrs by live cell imaging system based assay; type: functional
# LNCaP [31] = assay: Inhibition of PIP5K1alpha protein expression in human LNCAP cells at 20 uM incubated for 48 hrs by immunoblot analysis; type: functional, cell-based
# PC-3 [32] = assay: Inhibition of PIP5K1alpha protein expression in human PC3 cells assessed as reduction in CDK1 phosphorylation at 50 uM incubated for 48 hrs by immunoblot analysis relative to control; type: functional, cell-based
# [33] = Toxicity in mouse xenografted with human PC3 cells assessed as induction of body weight loss at 40 mg/kg co-treated with 10 mg/kg docetaxel dosed every second day starting from day 0 and ending on day 20; type: organism-based; conditions: in vivo
# LNCaP [34] = assay: Inhibition of AR protein expression in human LNCAP cells at 20 uM incubated for 48 hrs by immunoblot analysis; type: functional, cell-based
# [35] = molecular target: T1, MAP/microtubule affinity-regulating kinase 4 (Homo sapiens) (UniProt Q96L34); assay: Binding affinity to human MARK4
# T1 sequence (whole entry): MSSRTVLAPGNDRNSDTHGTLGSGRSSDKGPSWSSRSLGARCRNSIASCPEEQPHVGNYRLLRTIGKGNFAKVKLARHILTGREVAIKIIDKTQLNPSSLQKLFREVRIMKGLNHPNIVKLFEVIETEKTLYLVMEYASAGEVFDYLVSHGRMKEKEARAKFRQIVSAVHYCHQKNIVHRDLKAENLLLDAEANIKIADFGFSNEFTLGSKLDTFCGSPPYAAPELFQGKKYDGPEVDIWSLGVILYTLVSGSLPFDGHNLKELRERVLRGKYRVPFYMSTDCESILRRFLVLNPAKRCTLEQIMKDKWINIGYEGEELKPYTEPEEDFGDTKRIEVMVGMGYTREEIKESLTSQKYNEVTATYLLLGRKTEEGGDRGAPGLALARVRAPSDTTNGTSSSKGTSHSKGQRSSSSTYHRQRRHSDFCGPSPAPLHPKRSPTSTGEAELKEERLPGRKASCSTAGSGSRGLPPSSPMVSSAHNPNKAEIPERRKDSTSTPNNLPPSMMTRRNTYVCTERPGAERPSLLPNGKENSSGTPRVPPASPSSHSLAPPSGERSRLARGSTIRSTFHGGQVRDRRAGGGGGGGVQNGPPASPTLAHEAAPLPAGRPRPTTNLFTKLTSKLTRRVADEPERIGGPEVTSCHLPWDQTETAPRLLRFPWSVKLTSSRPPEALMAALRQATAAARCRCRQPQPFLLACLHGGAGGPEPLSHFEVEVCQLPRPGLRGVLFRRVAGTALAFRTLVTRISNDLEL
# PC-3 [36] = assay: Inhibition of PKAR1alpha protein expression in human PC3 cells at 20 uM incubated for 48 hrs by immunoblot analysis; type: functional, cell-based
# PC-3 [37] = assay: Inhibition of cell invasion in human PC3 cells assessed as cell invasion relative to control; type: functional; set-up: scale not given: the % may be the effect or the level left
# LNCaP [38] = assay: Effect on CREB phosphorylation in human LNCAP cells at 20 uM incubated for 48 hrs by immunoblot analysis; type: functional, cell-based
# U-937 = assay: Inhibition of cell proliferation in human U937 cells assessed as reduction in viable cell count at 10 to 100 uM incubated for 48 hrs; type: functional, cell-based
# PC-3 [39] = assay: Induction of morphological changes in human PC3 cells assessed as changes in morphology at 50 uM incubated for 48 hrs by live cell imaging system based assay; type: functional
# [40] = molecular target: Serine/threonine-protein kinase MARK1 (Homo sapiens) (UniProt Q9P0L2); assay: Binding affinity to human MARK1
# Chain of Serine/threonine-protein kinase MARK1 (Homo sapiens) (Q9P0L2 whole entry, looked up): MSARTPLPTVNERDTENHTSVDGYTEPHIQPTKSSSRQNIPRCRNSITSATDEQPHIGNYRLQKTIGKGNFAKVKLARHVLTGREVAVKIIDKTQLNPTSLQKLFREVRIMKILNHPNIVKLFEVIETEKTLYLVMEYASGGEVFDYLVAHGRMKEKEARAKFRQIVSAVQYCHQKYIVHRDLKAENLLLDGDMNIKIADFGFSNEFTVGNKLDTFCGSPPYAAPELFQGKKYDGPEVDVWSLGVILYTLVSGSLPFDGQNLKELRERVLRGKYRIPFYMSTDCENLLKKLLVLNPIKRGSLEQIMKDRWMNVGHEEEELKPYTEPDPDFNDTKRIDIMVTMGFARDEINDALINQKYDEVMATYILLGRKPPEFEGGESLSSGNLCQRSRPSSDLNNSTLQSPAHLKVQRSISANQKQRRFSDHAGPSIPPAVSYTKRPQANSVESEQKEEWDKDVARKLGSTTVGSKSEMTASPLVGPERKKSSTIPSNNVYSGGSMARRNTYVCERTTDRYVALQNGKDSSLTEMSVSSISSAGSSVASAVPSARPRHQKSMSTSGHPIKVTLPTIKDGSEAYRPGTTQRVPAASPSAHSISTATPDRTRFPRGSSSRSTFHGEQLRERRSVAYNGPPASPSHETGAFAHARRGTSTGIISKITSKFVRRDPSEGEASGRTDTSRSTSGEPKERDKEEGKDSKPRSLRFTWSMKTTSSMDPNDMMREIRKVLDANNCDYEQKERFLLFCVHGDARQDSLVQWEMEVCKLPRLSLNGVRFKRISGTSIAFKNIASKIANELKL
# LNCaP [41] = assay: Increase in p27 protein expression in human LNCAP cells at 20 uM incubated for 48 hrs by immunoblot analysis; type: functional, cell-based
# PC-3 [42] = assay: Inhibition of cell adhesion in human PC3 cells assessed as cell adhesion relative to control; type: functional; set-up: scale not given: the % may be the effect or the level left
# PC-3 [43] = assay: Induction of apoptosis in human PC3 cells assessed as late apoptotic cells at 50 uM incubated for 48 hrs by Annexin-/7-AAD staining based FACS analysis (reference value: 2.83%); type: functional
# PC-3 [44] = assay: Inhibition of PIP5K1alpha protein expression in human PC3 cells assessed as reduction in AKT phosphorylation at Ser473 residues at 50 uM incubated for 48 hrs by immunoblot analysis relative to control; type: functional, cell-based
structure (smiles),measurement,setting,value
CN1CC(=O)N2[C@H](c3c[nH]c4ccc(Cl)cc34)c3cc4c(cc3C[C@H]2C1=O)OCO4,inhibition,PC-3 [1],Active
same,Activity,CWR22R,Active
same,Activity,[2],Active
same,inhibition,PC-3 [3],Active
same,Activity,[4],Non-Toxic
same,Activity,PC-3 [5],0.8%
same,Activity,PC-3 [6],458 mm3
same,inhibition,PC-3 [7],Dose-dependent effect
same,inhibition,HCT-116,Active
same,growth at 20 µM,PC-3 [8],48.6%
same,Activity,PC-3 [9],4.96%
same,inhibition,PC-3 [10],Active
same,Activity,PC-3 [11],36 mm3
same,Activity,PC-3 [12],29.77%
same,Activity,PC-3 [13],Active
same,inhibition,Caco-2,Active
same,inhibition,PC-3 [14],Active
same,inhibition at 20 µM,LNCaP [15],75.5%
same,Activity,LNCaP [16],Active
same,Ratio,PC-3 [17],2.01
same,viability at 50 µM,PC-3 [18],80.2%
same,Activity,PC-3 [19],9.55%
same,growth at 50 µM,PC-3 [20],21.6%
same,inhibition,MDA-MB-231,Active
same,Activity,LNCaP [21],Active
same,inhibition,LNCaP [22],Active
same,inhibition,PC-3 [23],Active
same,Activity,LNCaP [24],Active
same,inhibition,LNCaP [25],Active
same,inhibition,PC-3 [26],Active
same,Activity,LNCaP [27],Active
same,inhibition,LNCaP [28],Active
same,growth at 10 µM,PC-3 [29],58.8%
same,Activity,PC-3 [30],Active
same,inhibition,LNCaP [31],Active
same,inhibition,PC-3 [32],Active
same,Activity,[33],Non-Toxic
same,inhibition,LNCaP [34],Active
same,Activity,[35],Active
same,inhibition,PC-3 [36],inactive
same,Activity,PC-3 [37],55.96%
same,Activity,LNCaP [38],inactive
same,inhibition,U-937,Active
same,Activity,PC-3 [39],Active
same,Activity,[40],Active
same,Activity,LNCaP [41],Active
same,Activity,PC-3 [42],38.82%
same,Activity,PC-3 [43],9.42%
COc1cc([C@@H]2c3cc4c(cc3[C@@H](O[C@@H]3O[C@@H]5CO[C@@H](C)O[C@H]5[C@H](O)[C@H]3O)[C@H]3COC(=O)[C@H]23)OCO4)cc(OC)c1O,inhibition,LNCaP [15],inactive
same,inhibition,PC-3 [44],inactive
same,Activity,LNCaP [38],inactive
